The source of these data is ChEMBL document CHEMBL5724696, “Autophagy assay results for EUbOPEN Chemogenomics Library” (2024).

Structures are written as SMILES. Where “and” joins values, the source holds several entries; their conditions need not be identical. Equal values may be shown once.

For test [1], the system named is U2OS. The experiment in a line: (§1) Here: values are normalized to the positive (DMSO; basel flux = defined as 100% suppression) and negative (250nM Torin1; mTOR inhibitor; maximal inducer of autophagy defined as 0% suppression) control compounds and represented as % of ER-phagy suppression. […] The impact of autophagy induction on cells is complex and depends on the affected target. […] Of note, treatment concentrations may be sub-optimal for specific compounds, leading to false negative annotations. It counts as functional, Homo sapiens. The following applies: Compound Concentration 1 uM, Culturing Media DMEM, 1 % Penicillin/Streptomycin, 10% Fetal bovin serum Add-On: blasticidin, Screening Media Control DMEM, 10% Fetal bovin serum Add-On: 1 µg/ml Doxycyclin, Screening Media Samples DMEM.

Test [2] deals with U2OS. The description is as §1. The format is functional, Homo sapiens. The following applies: Compound Concentration 1 uM, Culturing Media DMEM, 1 % Penicillin/Streptomycin, 10% Fetal bovin serum Add-On: blasticidin, Screening Media Control DMEM, 10% Fetal bovin serum Add-On: 1 µg/ml Doxycyclin, Screening Media Samples DMEM. This is another data set of the same source.
[3] abbreviates: Timepoint 12 hours, 10% Fetal bovin serum Add-On: 1 µg/ml Doxycyclin 250nM Torin1, 12 h, 1 µM.
[4] abbreviates: Timepoint 36 hours, 10% Fetal bovin serum Add-On: 1 µg/ml Doxycyclin 250nM Torin1, 36 h, 1 µM.
The mark [5] stands for this setting: Timepoint 60 hours, 10% Fetal bovin serum Add-On: 1 µg/ml Doxycyclin 250nM Torin1, 60 h, 1 µM.
[6] abbreviates: Timepoint 24 hours, 10% Fetal bovin serum Add-On: 1 µg/ml Doxycyclin 250nM Torin1, 24 h, 1 µM.
The mark [7] stands for this setting: Timepoint 54 hours, 10% Fetal bovin serum Add-On: 1 µg/ml Doxycyclin 250nM Torin1, 54 h, 1 µM.
The mark [8] stands for this setting: Timepoint 12 hours, 10% Fetal bovin serum Add-On: 1 µg/ml Doxycyclin 250nM Torin1.
The mark [9] stands for this setting: Timepoint 24 hours, 10% Fetal bovin serum Add-On: 1 µg/ml Doxycyclin 250nM Torin1.
Where [10] appears, read: Timepoint 36 hours, 10% Fetal bovin serum Add-On: 1 µg/ml Doxycyclin 250nM Torin1.
The mark [11] stands for this setting: Timepoint 60 hours, 10% Fetal bovin serum Add-On: 1 µg/ml Doxycyclin 250nM Torin1.
Setting [12] is: Timepoint 54 hours, 10% Fetal bovin serum Add-On: 1 µg/ml Doxycyclin 250nM Torin1.

In the case of `CNC(=O)c1ccc(Nc2ncc(C(F)(F)F)c(NCc3nccnc3N(C)S(C)(=O)=O)n2)cc1` [DEFACTINIB], the ER-phagy suppression in test [1] (setting [3]) is -10.5841% and -8.687%; in test [1] (setting [4]), -22.8017% and 1.862%; in test [1] (setting [5]) it was -7.812% and 1.51%; in test [2] (setting [3]) it was 6.334% and 17.6982%; in test [2] (setting [6]) it was -6.042% and 9.811%; in test [2] (setting [4]), -8.211% and 10.8271%.

Turning to `CCN(CCO)CCCOc1ccc2c(Nc3cc(CC(=O)Nc4cccc(F)c4)[nH]n3)ncnc2c1` [DEFOSBARASERTIB], the ER-phagy suppression was 14.0476% and -1.761% in test [1] (setting [5]); -1.417% and 3.579% in test [2] (setting [3]); -12.3988% and -4.272% in test [2] (setting [6]); -12.8875% and -11.7769% in test [2] (setting [4]); -17.4995% and -20.4042% in test [2] (setting [7]).

For the molecule `CN1CCN(Cc2ccc(Nc3ncc(Cl)c(Nc4ccccc4S(=O)(=O)N(C)C)n3)cc2)CC1` [DUBERMATINIB], the ER-phagy suppression in test [1] (setting [8]) was -20.0629%; in test [1] (setting [9]), 4.178%; in test [1] (setting [10]), 12.5384%; in test [1] (setting [11]), 29.2244%; in test [2] (setting [8]), -2.878%; in test [2] (setting [9]), -1.86%. Further, the ER-phagy suppression amounted to 7.295% in test [2] (setting [10]) and 21.9101% in test [2] (setting [12]).

Regarding `Cn1cc(C2=C(c3cn(C4CCN(Cc5ccccn5)CC4)c4ccccc34)C(=O)NC2=O)c2ccccc21` [ENZASTAURIN], the ER-phagy suppression in test [1] (setting [8]) is reported as 35.0144%; in test [1] (setting [9]) it was 19.4915%; in test [1] (setting [10]), 15.6229%; in test [1] (setting [11]), 9.495%; in test [2] (setting [8]) it was 5.0599%; in test [2] (setting [9]) it was -2.39%. For the same molecule, the ER-phagy suppression is -11.3748% in test [2] (setting [10]) and -3.56% in test [2] (setting [12]).

Take `C[C@H](NC(=O)Nc1cc2[nH]ncc2c(CO)n1)c1ccccn1` [ERKi-NC]: the ER-phagy suppression in test [1] (setting [8]) is -23.4889%; in test [1] (setting [9]) it was -22.8439%; in test [1] (setting [10]), -26.5362%; in test [1] (setting [11]), -20.3879%; in test [2] (setting [8]) it was 16.3207%; in test [2] (setting [9]), -4.124%. The ER-phagy suppression in test [2] (setting [10]) is listed as -11.6627%; in test [2] (setting [12]), -9.3851%.

As to `C[C@@H](NC(=O)Nc1cc2[nH]ncc2c(CO)n1)c1ccccc1` [ERKi], the ER-phagy suppression in test [1] (setting [8]) is on record as -20.6264%; in test [1] (setting [9]), 1.384%; in test [1] (setting [10]), -7.522%; in test [1] (setting [11]) it was -12.4094%; in test [2] (setting [8]), 6.504%; in test [2] (setting [9]) it was -3.07%. The ER-phagy suppression in test [2] (setting [10]) was -4.694%; in test [2] (setting [12]) it was -0.09872%.

Take `CN(C)CCCn1cc(C2=C(c3c[nH]c4ccccc34)C(=O)NC2=O)c2ccccc21` [GF-109203]: the ER-phagy suppression in test [1] (setting [8]) came out at 176.072%; in test [1] (setting [9]), 134.347%; in test [1] (setting [10]), 114.591%; in test [1] (setting [11]), 104.135%; in test [2] (setting [8]), 134.318%; in test [2] (setting [9]) it was 101.39%. The ER-phagy suppression in test [2] (setting [10]) amounted to 90.0252%; in test [2] (setting [12]), 89.0171%.

Take `O=C(O)c1ccc(-c2c[nH]c3ncc(-c4ccccc4)cc23)cc1C1CCCC1` [GSK-650394]: the ER-phagy suppression in test [1] (setting [8]) is given as -3.529%; in test [1] (setting [9]), -12.5069%; in test [1] (setting [10]), 3.383%; in test [1] (setting [11]), 9.397%; in test [2] (setting [8]), 10.3251%; in test [2] (setting [9]), -3.71%. For the same molecule, the figures for the ER-phagy suppression in test [2] (setting [10]) and in test [2] (setting [12]) were -12.9295% and -11.6174%, respectively.

Turning to `O=c1cc(-c2cccc3c2Sc2ccccc2S3)oc(N2CCOCC2)c1` [KU-55933], the ER-phagy suppression in test [1] (setting [8]) was 55.4841%; in test [1] (setting [9]), 58.138%; in test [1] (setting [10]) it was 50.8459%; in test [1] (setting [11]) it was 57.1444%; in test [2] (setting [8]) it was 6.867%; in test [2] (setting [9]), -4.052%. The ER-phagy suppression is on record as -12.4961% in test [2] (setting [10]) and -6.9587% in test [2] (setting [12]).

For the molecule `Cc1cnc(-c2cnc(NCCNc3ccc(C#N)cn3)nc2-c2ccc(Cl)cc2Cl)[nH]1` [LADUVIGLUSIB], the ER-phagy suppression was 40.8879% in test [1] (setting [8]); 29.9628% in test [1] (setting [9]); 22.9027% in test [1] (setting [10]); 26.8731% in test [1] (setting [11]); 16.4928% in test [2] (setting [8]); 17.774% in test [2] (setting [9]). The ER-phagy suppression in test [2] (setting [10]) is on record as 23.5271%; in test [2] (setting [12]), 35.0421%.

As for `O=C(O)[C@]1(Cc2cccc(Nc3nccs3)n2)CC[C@@H](Oc2cccc(Cl)c2F)CC1` [MK-5108], the ER-phagy suppression in test [1] (setting [3]) is 0.5036% and -6.3832%; in test [1] (setting [6]) it was -3.155% and -11.7886%; in test [1] (setting [4]) it was -0.3659% and -12.8084%; in test [1] (setting [5]), 7.072% and -14.3125%; in test [2] (setting [3]), -21.8455% and -0.3871%; in test [2] (setting [6]), -36.5962% and -17.27%. Also, the ER-phagy suppression in test [2] (setting [4]) is -35.461% and -24.0375%; in test [2] (setting [7]), -31.7232% and -12.4423%.

In the case of `C[C@@H]1CN(c2cc(-c3nn(C)c4ccc(OC5(C)CC5)cc34)ncn2)C[C@H](C)O1` [MLi-2-NC], the ER-phagy suppression is 30.6608% in test [1] (setting [8]); 32.7197% in test [1] (setting [9]); 14.6999% in test [1] (setting [10]); 6.822% in test [1] (setting [11]); 6.526% in test [2] (setting [8]); -15.2571% in test [2] (setting [9]). The figures for the ER-phagy suppression in test [2] (setting [10]) and in test [2] (setting [12]) were -21.814% and -27.1974%, respectively.

Take `C[C@@H]1CN(c2cc(-c3n[nH]c4ccc(OC5(C)CC5)cc34)ncn2)C[C@H](C)O1` [MLi-2]: the ER-phagy suppression is listed as 9.792% in test [1] (setting [8]); 2.978% in test [1] (setting [9]); -16.0797% in test [1] (setting [10]); -15.9794% in test [1] (setting [11]); 2.807% in test [2] (setting [8]); -15.8401% in test [2] (setting [9]). In addition, the ER-phagy suppression in test [2] (setting [10]) is on record as -22.331%; in test [2] (setting [12]) it was -20.0591%.

For `Cc1ccc(-c2cnc([C@@]3(O)CC[C@H](C(=O)O)C(C)(C)C3)s2)cc1Nc1cccc(C(F)(F)F)n1` [MRL-SYKi-NC], the ER-phagy suppression in test [1] (setting [8]) was -10.2062%; in test [1] (setting [9]), -4.2474%; in test [1] (setting [10]), -12.4056%; in test [1] (setting [11]) it was -6.238%; in test [2] (setting [8]) it was -2.6288%; in test [2] (setting [9]), -19.3711%. In addition, the ER-phagy suppression is on record as -27.7592% in test [2] (setting [10]) and -26.2542% in test [2] (setting [12]).
